Reference: PubChem BioAssay (NCI)
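Where inhibition never reached the appropriate level, the endpoint shown equals the highest concentration tested. Otherwise, values were interpolated linearly from a five-concentration, 48-hour dose response in 96-well plates. Here, GI50 denotes the concentration required for 50% inhibition of growth. The concentration for full growth arrest is given as TGI.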

Key:
Test in all cases: growth of human tumour cells (NCI), 48 h
OVCAR-5 ovarian = system: OVCAR-5 ovarian
SW-620 colon = system: SW-620 colon
OVCAR-3 ovarian = system: OVCAR-3 ovarian
U251 CNS = system: U251 CNS
SF-295 CNS = system: SF-295 CNS
NCI-H522 lung = system: NCI-H522 lung
EKVX NSCLC = system: EKVX NSCLC
HCT-15 colon = system: HCT-15 colon
MALME-3M melanoma = system: MALME-3M melanoma
NCI-H23 lung = system: NCI-H23 lung
UACC-257 melanoma = system: UACC-257 melanoma
HT29 colon = system: HT29 colon
SNB-75 CNS = system: SNB-75 CNS
RXF 393 renal = system: RXF 393 renal
CCRF-CEM leukemia = system: CCRF-CEM leukemia
OVCAR-8 ovarian = system: OVCAR-8 ovarian
UO-31 renal = system: UO-31 renal
SN12C renal = system: SN12C renal
HOP-92 NSCLC = system: HOP-92 NSCLC
SF-268 CNS = system: SF-268 CNS
HOP-62 NSCLC = system: HOP-62 NSCLC
SNB-78 CNS = system: SNB-78 CNS
IGROV1 ovarian = system: IGROV1 ovarian
LXFL 529 NSCLC = system: LXFL 529 NSCLC
786-0 renal = system: 786-0 renal
KM20L2 colon = system: KM20L2 colon
SF-539 CNS = system: SF-539 CNS
NCI-H460 lung = system: NCI-H460 lung
OVCAR-4 ovarian = system: OVCAR-4 ovarian
SK-OV-3 ovarian = system: SK-OV-3 ovarian
M14 melanoma = system: M14 melanoma
M19-MEL melanoma = system: M19-MEL melanoma
SNB-19 CNS = system: SNB-19 CNS
HCC-2998 colon = system: HCC-2998 colon
LOX IMVI melanoma = system: LOX IMVI melanoma
SK-MEL-28 melanoma = system: SK-MEL-28 melanoma
MOLT-4 leukemia = system: MOLT-4 leukemia
UACC-62 melanoma = system: UACC-62 melanoma
HL-60(TB) leukemia = system: HL-60(TB) leukemia
TK-10 renal = system: TK-10 renal
A498 renal = system: A498 renal
NCI-H226 lung = system: NCI-H226 lung
SK-MEL-2 melanoma = system: SK-MEL-2 melanoma
COLO 205 colon = system: COLO 205 colon
SK-MEL-5 melanoma = system: SK-MEL-5 melanoma
ACHN renal = system: ACHN renal
K-562 leukemia = system: K-562 leukemia
KM12 colon = system: KM12 colon
SR leukemia = system: SR leukemia
DMS 273 small cell lung = system: DMS 273 small cell lung
HOP-18 NSCLC = system: HOP-18 NSCLC
HCT-116 colon = system: HCT-116 colon
A549 NSCLC = system: A549 NSCLC

`C[CH2][Sn]([CH2]C)([O]C(=O)c1c(F)cccc1F)[O][Sn]([CH2]C)([CH2]C)[O]C(=O)c1c(F)cccc1F` was tested, and the GI50 (OVCAR-5 ovarian) was 17.9 µM, the TGI (OVCAR-5 ovarian) was 31.8 µM and the GI50 (SW-620 colon) was 16.3 µM. The TGI (SW-620 colon) was 29.9 µM, the GI50 (OVCAR-3 ovarian) was 25.9 µM and the TGI (OVCAR-3 ovarian) was 78.1 µM. For the same molecule, the GI50 (U251 CNS) was 17.4 µM, the TGI (U251 CNS) was 31.2 µM and the GI50 (SF-295 CNS) was 20.1 µM. It also gave a TGI (SF-295 CNS) of 34.5 µM, a GI50 (NCI-H522 lung) of 1.1 µM and a TGI (NCI-H522 lung) of 2.36 µM. It also gave a GI50 (EKVX NSCLC) of 16.8 µM, a TGI (EKVX NSCLC) of 30.6 µM and a GI50 (HCT-15 colon) of 17.9 µM. The TGI (HCT-15 colon) was 32.5 µM, the GI50 (MALME-3M melanoma) was 14.9 µM and the TGI (MALME-3M melanoma) was 28.8 µM. It also gave a GI50 (NCI-H23 lung) of 15.9 µM, a TGI (NCI-H23 lung) of 29.3 µM and a GI50 (UACC-257 melanoma) of 16.5 µM. For the same molecule, the TGI (UACC-257 melanoma) was 30.2 µM, the GI50 (HT29 colon) was 19.8 µM and the TGI (HT29 colon) was 42.2 µM. The GI50 (SNB-75 CNS) was 16.2 µM, the TGI (SNB-75 CNS) was 29.7 µM and the GI50 (RXF 393 renal) was 13.7 µM. For the same molecule, the TGI (RXF 393 renal) was 26.6 µM, the GI50 (CCRF-CEM leukemia) was 3.85 µM and the TGI (CCRF-CEM leukemia) was 17.1 µM. It also gave a GI50 (OVCAR-8 ovarian) of 17.2 µM, a TGI (OVCAR-8 ovarian) of 30.9 µM and a GI50 (UO-31 renal) of 36 µM. The TGI (UO-31 renal) was > 100 µM, the GI50 (SN12C renal) was 16 µM and the TGI (SN12C renal) was 29.5 µM. For the same molecule, the GI50 (HOP-92 NSCLC) was 18.8 µM, the TGI (HOP-92 NSCLC) was 32.9 µM and the GI50 (SF-268 CNS) was 15.3 µM. The TGI (SF-268 CNS) was 28.6 µM, the GI50 (HOP-62 NSCLC) was 20.8 µM and the TGI (HOP-62 NSCLC) was 36.9 µM. It also gave a GI50 (SNB-78 CNS) of 15.8 µM, a TGI (SNB-78 CNS) of 32.4 µM and a GI50 (IGROV1 ovarian) of 69 µM. For the same molecule, the TGI (IGROV1 ovarian) was > 100 µM, the GI50 (LXFL 529 NSCLC) was 5.44 µM and the TGI (LXFL 529 NSCLC) was 18.4 µM. It also gave a GI50 (786-0 renal) of 16 µM, a TGI (786-0 renal) of 29.7 µM and a GI50 (KM20L2 colon) of 26.7 µM. For the same molecule, the TGI (KM20L2 colon) was 68.8 µM, the GI50 (SF-539 CNS) was 14.9 µM and the TGI (SF-539 CNS) was 28.1 µM. It also gave a GI50 (NCI-H460 lung) of 20 µM, a TGI (NCI-H460 lung) of 40.6 µM and a GI50 (OVCAR-4 ovarian) of 18.8 µM. For the same molecule, the TGI (OVCAR-4 ovarian) was 33 µM, the GI50 (SK-OV-3 ovarian) was 41.3 µM and the TGI (SK-OV-3 ovarian) was > 100 µM. It also gave a GI50 (M14 melanoma) of 18.1 µM, a TGI (M14 melanoma) of 32 µM and a GI50 (M19-MEL melanoma) of 16.3 µM. The TGI (M19-MEL melanoma) was 30.9 µM, the GI50 (SNB-19 CNS) was 17.1 µM and the TGI (SNB-19 CNS) was 30.8 µM. The GI50 (HCC-2998 colon) was 42.8 µM, the TGI (HCC-2998 colon) was > 100 µM and the GI50 (LOX IMVI melanoma) was 16.1 µM. The TGI (LOX IMVI melanoma) was 29.9 µM, the GI50 (SK-MEL-28 melanoma) was 15.6 µM and the TGI (SK-MEL-28 melanoma) was 29 µM. The GI50 (MOLT-4 leukemia) was 23.4 µM, the TGI (MOLT-4 leukemia) was 88.3 µM and the GI50 (UACC-62 melanoma) was 17.6 µM. The TGI (UACC-62 melanoma) was 31.4 µM, the GI50 (HL-60(TB) leukemia) was 26.5 µM and the TGI (HL-60(TB) leukemia) was 76.7 µM. It also gave a GI50 (TK-10 renal) of 19.2 µM, a TGI (TK-10 renal) of 33.3 µM and a GI50 (A498 renal) of 15 µM. For the same molecule, the TGI (A498 renal) was 28.3 µM, the GI50 (NCI-H226 lung) was 22 µM and the TGI (NCI-H226 lung) was 36.7 µM. It also gave a GI50 (SK-MEL-2 melanoma) of 14.4 µM, a TGI (SK-MEL-2 melanoma) of 27.7 µM and a GI50 (COLO 205 colon) of 12.6 µM. The TGI (COLO 205 colon) was 25.1 µM, the GI50 (SK-MEL-5 melanoma) was 18.2 µM and the TGI (SK-MEL-5 melanoma) was 32.3 µM. It also gave a GI50 (ACHN renal) of 19.1 µM, a TGI (ACHN renal) of 33.2 µM and a GI50 (K-562 leukemia) of 8.61 µM. For the same molecule, the TGI (K-562 leukemia) was 37.5 µM, the GI50 (KM12 colon) was > 100 µM and the TGI (KM12 colon) was > 100 µM. For the same molecule, the GI50 (SR leukemia) was 26.6 µM, the TGI (SR leukemia) was > 100 µM and the GI50 (DMS 273 small cell lung) was 18.6 µM. It also gave a TGI (DMS 273 small cell lung) of 35.2 µM, a GI50 (HOP-18 NSCLC) of 22.6 µM and a TGI (HOP-18 NSCLC) of 37.1 µM. The GI50 (HCT-116 colon) was 19 µM, the TGI (HCT-116 colon) was 34 µM and the GI50 (A549 NSCLC) was > 100 µM. For the same molecule, the TGI (A549 NSCLC) was > 100 µM.
